Experiment [1] relates to mice. As to conditions: previously described; cited from earlier work.
Experiment [2] has as its system PKCI/HINT1 WT and KO mice. The experiment is described as follows: Tail suspension test, effect of haloperidol. In kind it is in vivo. An excerpt: In order to confirm the results of the forced swim test while removing any bias introduced by the animal's swimming or learning capacity, we used the tail suspension test. This test assesses depression trait using coping behavior in a stressful situation (Cryan J F et al., 2005, Neruosc. Behav. Rev. 29, 571-625). The animals are exposed to a […] stress of being hung in an uncontrollable fashion by the tail for six minutes. Immobility, considered as a depression trait when the animal gives up any escape, is reported in seconds. Data are expressed as mean+/−SEM and analyzed using a 2 way ANOVA (age×genotype) followed by Bonferroni when p<0.05.
Haloperidol 0.05 mg/kg and 0.1 mg/kg were administered via intra-peritoneal (10 ml/kg) 30 minutes before the test. Data are expressed as mean+/−SEM and analyzed using a 2 way ANOVA (treatment×genotype) followed by Bonferroni when p<0.05.

Another experiment has as its system mPKCI WT and KO mice. Kind of experiment: Locomotor activity measurement (open field, ambulation and stereotypy). In kind it is in vivo. Here is the method: The generation of PKCI^−/− mice was described previously (Su et al, 2003, supra). PKCI^−/− mice and their wild type littermates were derived by breeding heterozygous […] mice for altered PKCI allele (Hint1) and genotype of the animals was confirmed by PCR of DNA from tail biopsies. Animals were housed 4-6/cage, maintained under standard laboratory condition with food and water provided ad libitum. The male animals were tested between 10-20 weeks of age. Wild type and PKCI^−/− groups were matched for age in all experiments. All studies were conducted with an approved protocol from University of Maryland, School of Pharmacy IACUC.
Mice locomotor activity was monitored during an open field test using “Activity Monitor” chambers (27×27×20.3 cm) associated with the Activity Monitor software (Med Associates Inc St Albans Vt.). Room temperature was set at 23° C.+/−2° C. Horizontal spontaneous locomotion activity, scored as ambulatory counts and stereotypic movements (Sanberg P. R. et al 1987, Pharmacol. Biochem. Behav. 27, 569-72), was recorded during the first 30 min of acclimatization to the novel environment and during 120 min following the treatment. The animals were acclimated to a 12 h cycle light/dark phase with the light on at 7:00 am before the experiments. Tests were performed during the light phase of the cycle between 8:00 am to 3:00 pm. AMPH or other drugs was prepared freshly before each experiment by dissolving in saline (NaCl 0.9%) and administered via intra peritoneal in a total volume of 10 ml/kg at the indicated doses.

The subject of a further experiment is PKCI KO mice. Kind of experiment: Conditional place preference test. In kind it is in vivo. As to conditions: preliminary data. An excerpt:
Finally, we are looking at the involvement of PKCI in the rewarding function in PKCI KO mice. In this study, we are testing the response of the KO mice to the reward action of amphetamine and cocaine by using conditional place preference test.

The test system of experiment [3] is extracellular DA in nucleus accumbens and caudate-putamen of mPKCI WT and KO mice. The experiment is described as follows: In vivo microdialysis, amphetamine-evoked extracellular DA. As to conditions: 2.5 mg/kg ip, conventional microdialysis, FIG. 4. Here is the method:
PKCI^−/− mice and their WT controls were anesthetized and implanted unilaterally with a microdialysis guide cannula (CMA/11, CMA microdialysis) in the nucleus accumbens (AP: +1.5, L: −0.8, V: −3.8 from bregma) or the dorsal striatum (AP: +0.4, L−2.1, V−2.2 from bregma) using standard stereotaxic techniques, and allowed to recover for 5 days prior to the microdialysis experiment as described. […]
For no net flux experiments, five different concentrations of DA (0, 5, 10, 20 and 40 nM) in aCSF were perfused in random order through the dialysis probe. […] The DA content was determined by HPLC coupled to electrochemical detection with an external standard. All the samples were analyzed within 48 hours of collection. […] No net flux data was analyzed as described (Chefer et al 2006, supra). The net flux of DA through the probe (DAin-DAout) was calculated and plotted against the concentration of DA perfused (DAin). The following parameters were calculated from the resulting linear function. […] In the conventional microdialysis experiments investigating the effects of amphetamine, the average of the three baseline samples was calculated, and all the DA concentrations were expressed as % of baseline. […]

In experiment [4] the test system is mice. As to conditions: 10 mg/kg dose; cited from earlier work.

The structures appear in SMILES notation. Entries after “also recorded” stand apart in the source; their conditions may differ.

As to `O=C(CCCN1CCC(O)(c2ccc(Cl)cc2)CC1)c1ccc(F)cc1` [Haloperidol], the “mice immobility in the tail suspension test” value in the experiment with mice [1] is “increase mice immobility”. In experiment [2] (0.05 mg/kg and 0.1 mg/kg i.p. 30 minutes before the test, WT and KO, FIG. 8), the “immobility compared with saline treatment” value is “increased immobility in both WT and KO animals”. Besides, the “increase in immobility in KO mice relative to WT level” value in experiment [2] (0.1 mg/kg, 3 months and 15 months old) is on record as “reaching the level attained by WT animals”.
For the compound `C[C@H](N)Cc1ccccc1` [amphetamine, D-amphetamine], in the experiment on mPKCI WT and KO mice (AMPH 2.5 mg/kg i.p., 120 min after treatment, WT and KO mice, FIG. 2), the effect on locomotion result is “increased locomotion in both WT and KO animals”. Also, the “amphetamine-evoked locomotor response, PKCI KO compared with WT” value in the experiment on mPKCI WT and KO mice (AMPH 2.5 mg/kg i.p., KO vs WT) was “three times more”. Further, the “increase in amphetamine-evoked activity in mPKCI KO mice, dose response” value in the experiment with mPKCI WT and KO mice (D-AMPH 1.25, 2.5 and 5 mg/kg i.p., FIG. 3) is “consistent across a range of amphetamine doses”. Also, the “response of KO mice to reward action” value with PKCI KO mice is “higher response”. Moreover, in experiment [3], the “amphetamine-evoked DA response, WT vs KO” value is “No significant difference between WT and KO mice; also recorded: did not differ in WT and KO animals”.
With `CN1CCc2cccc3c2[C@H]1Cc1ccc(O)c(O)c1-3` [apomorphine], in the experiment with mPKCI WT and KO mice (apomorphine 10 mg/kg i.p., FIG. 5), the “locomotor activity (total ambulation and stereotyped behavior), KO compared with WT” value is listed as “significantly higher locomotor activity as compared with WT”.
Consider `CN1CC[C@]23c4c5ccc(O)c4O[C@H]2[C@@H](O)C=C[C@H]3[C@H]1C5` [morphine], for which the locomotion result with mice [4] was “a decrease in locomotion was often observed”. The “effect on locomotor activity” value in the experiment on mPKCI WT and KO mice (morphine 10 mg/kg i.p., 120 min after treatment, WT and KO mice, FIG. 2) was “did not promote increase in locomotor activity; also recorded: depressive locomotor effect on both wild type and knockout mice”.
